Results: patent EP0747355A1, “NOVEL CARBAMATE DERIVATIVE AND MEDICINAL COMPOSITION CONTAINING THE SAME” (priority 1994, dated 1995)
Where two headings read alike, the source gives them in different places.

Legend:
[1] = tested on: rhythmic bladder contraction in rat; assay: Test on rhythmic bladder contraction in rat (in vivo muscarinic antagonism); design: species or system Wistar female rats
[2] = tested on: salivary secretion in rat; assay: Test on salivary secretion in rat (oxotremorine-induced); assay type: in vivo, Male Wistar rats
muscarinic M2 receptors = biological target: T1, muscarinic M2 receptors (Rattus norvegicus, UniProt P10980); assay: biochemical; assay type: binding, Wistar male rats
T1 sequence (P10980 1-466): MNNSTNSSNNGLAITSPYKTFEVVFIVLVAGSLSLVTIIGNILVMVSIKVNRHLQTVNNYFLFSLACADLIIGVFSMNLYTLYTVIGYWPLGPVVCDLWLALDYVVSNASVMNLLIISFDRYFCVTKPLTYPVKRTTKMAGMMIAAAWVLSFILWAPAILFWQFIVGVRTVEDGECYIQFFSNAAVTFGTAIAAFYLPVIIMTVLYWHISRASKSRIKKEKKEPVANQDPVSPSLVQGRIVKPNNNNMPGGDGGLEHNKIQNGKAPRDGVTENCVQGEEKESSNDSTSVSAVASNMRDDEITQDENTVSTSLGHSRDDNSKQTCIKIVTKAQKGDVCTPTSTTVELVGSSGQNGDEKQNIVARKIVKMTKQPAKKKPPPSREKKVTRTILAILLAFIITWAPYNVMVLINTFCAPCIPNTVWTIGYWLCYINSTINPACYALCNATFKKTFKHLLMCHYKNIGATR

Muscarinic M3 receptor = biological target: T2, Muscarinic M3 receptor (Rattus norvegicus, UniProt P08483); assay: Muscarinic M3 receptor binding test (submandibular gland membranes, [3H]-N-methylscopolamine); design: species or system Wistar male rats
T2 construct: except that submandibular gland membranes were used and [^3H]-N-methylscopolamine was used as the labeled ligand; from tissue; host or cells: rat submandibular gland membranes (Wistar male rats, Nippon SLC)
T2 sequence (P08483 whole entry): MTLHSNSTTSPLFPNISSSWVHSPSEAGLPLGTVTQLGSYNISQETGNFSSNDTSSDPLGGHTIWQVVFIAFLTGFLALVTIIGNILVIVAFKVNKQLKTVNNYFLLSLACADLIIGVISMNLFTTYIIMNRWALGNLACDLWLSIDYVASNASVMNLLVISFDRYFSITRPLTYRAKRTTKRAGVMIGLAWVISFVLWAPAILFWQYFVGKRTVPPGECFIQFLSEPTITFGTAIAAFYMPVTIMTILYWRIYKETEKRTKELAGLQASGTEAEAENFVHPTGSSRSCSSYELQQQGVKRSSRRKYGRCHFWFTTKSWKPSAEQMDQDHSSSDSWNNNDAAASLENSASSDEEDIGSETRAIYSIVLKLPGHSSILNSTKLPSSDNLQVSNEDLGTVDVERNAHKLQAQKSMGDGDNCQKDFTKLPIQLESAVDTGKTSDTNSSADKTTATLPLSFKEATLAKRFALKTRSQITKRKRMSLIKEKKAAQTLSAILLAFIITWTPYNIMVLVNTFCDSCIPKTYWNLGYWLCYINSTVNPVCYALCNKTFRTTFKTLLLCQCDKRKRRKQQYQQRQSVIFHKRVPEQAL

[3] = tested on: bronchospasm in guinea pig; assay type: in vivo, Hartley male guinea pig
[4] = urethane anesthesia, cumulative i.v. administration, 30% inhibition of peak bladder contractions
[5] = oxotremorine 0.8 µmol/kg 15 minutes after compound, saliva of 5 minutes
[6] = read-out: Ki (nM) M2 binding Test
[7] = rat submandibular gland membranes, [3H]-N-methylscopolamine, read-out: Ki (nM) M3 binding Test
[8] = methacholine 5 µg/kg i.v., 3 minutes after compound i.v.

Molecule | Rhythmic Bladder Contraction Test ED30 (mg/kg i.v.) [1, 4] | Salivary Secretion Test ED50 (mg/kg i.v.) [2, 5] | M2/M3 (Muscarinic M3 receptor; ratio of Ki M2 to Ki M3) | Bronchospasm Test ID50 (mg/kg i.v.) ([3]; in vivo, iv) | Ki (muscarinic M2 receptors) | Ki (Muscarinic M3 receptor) | other results
3-Quinuclidinyl N-[2-(2-cyclohexen-1-yl)phenyl]carbamate hemioxalate [Example 61] | 0.029 mg/kg i.v. | 0.14 mg/kg i.v. | – | – | – | – | –
3-quinuclidinyl N-[2-(1H-pyrrol-1-yl)phenyl]carbamate monohydrochloride [Example 2] | 0.018 mg/kg i.v. | 0.11 mg/kg i.v. | 20.4 | – | – | – | Ki (muscarinic M2 receptors; [6]): 100 nM; Ki (Muscarinic M3 receptor; [7]): 4.89 nM
CN1[C@@H]2CC[C@H]1C[C@@H](OC(=O)C(CO)c1ccccc1)C2 (some centres unmarked) [Atropine, reference compound] | – | – | – | 0.0008 mg/kg i.v. | – | – | Rhythmic Bladder Contraction Test ED30 (mg/kg i.v.) ([1]; in vivo, iv): 0.009 mg/kg i.v.; Salivary Secretion Test ED50 (mg/kg i.v.) ([2]; in vivo, iv): 0.0084 mg/kg i.v.
Cl.O=C(Nc1ccccc1-c1ccccc1)OC1CN2CCC1CC2 (centres unmarked) [Example 1, 3-quinuclidinyl N-(2-biphenylyl)carbamate monohydrochloride] | – | – | 27.6 | – | 25.9 nM | 0.94 nM | Bronchospasm Test ID50 (mg/kg i.v.) [3, 8]: 0.0045 mg/kg i.v.
C[N+]12CCC(CC1)C(OC(=O)Nc1ccccc1-c1ccccc1)C2.[I-] (centres unmarked) [Example 3, 3-[[N-(2-biphenylyl)carbamoyl]oxy]-1-methylquinuclidinium iodide] | – | – | 25.7 | – | 14.4 nM | 0.56 nM | Bronchospasm Test ID50 (mg/kg i.v.) [3, 8]: 0.0038 mg/kg i.v.
Cl.O=C(Nc1ccccc1-c1ccccc1)OC12CCN(CC1)CC2 [Example 4, 4-quinuclidinyl N-(2-biphenylyl)carbamate monohydrochloride] | – | – | – | 0.0082 mg/kg i.v. | 5.89 nM | 0.39 nM | Rhythmic Bladder Contraction Test ED30 (mg/kg i.v.) ([1]; in vivo, iv): 0.014 mg/kg i.v.; M2/M3 (Muscarinic M3 receptor): 15.2; Salivary Secretion Test ED50 (mg/kg i.v.) ([2]; in vivo, iv): 0.10 mg/kg i.v.
C[N+]1(C)CCC(OC(=O)Nc2ccccc2-c2ccccc2)CC1.[I-] [Example 7, 4-[[N-(2-biphenylyl)carbamoyl]oxy]-1,1-dimethylpiperidinium iodide] | – | – | 25.8 | 0.0054 mg/kg i.v. | – | – | Ki (muscarinic M2 receptors; [6]): 14.7 nM; Ki (Muscarinic M3 receptor; [7]): 0.57 nM
O=C(Nc1ccccc1-c1ccccc1)OC1CCN(Cc2cccc(O)c2)CC1.O=C(O)C(=O)O [Example 15, 1-(3-Hydroxybenzyl)-4-piperidyl N-(2-biphenylyl)carbamate monooxalate] | 0.058 mg/kg i.v. | 0.36 mg/kg i.v. | – | – | – | – | –
CCN(CC)CC#CCOC(=O)C(O)(c1ccccc1)C1CCCCC1 (centres unmarked) [Oxybutynin, reference compound] | 0.24 mg/kg i.v. | 0.18 mg/kg i.v. | – | – | – | – | –
